Columns and labels:
recombinant human ACC2 = recombinant human ACC2 (Homo sapiens, UniProt O00763); test: Radioactive assay of ACC2 activity ([14C]KHCO3 incorporation into malonyl-CoA); type: biochemical
Description: The reaction mixture contained 50 mM HEPES, pH 7.5, 2.5 mM MnCl2, 2.0 mM DTT, 0.125 mM acetyl-CoA, 4.0 mM ATP, 12.5 mM [^14C]KHCO3 (4×10^6 dpm), 0.75 mg/mL BSA, 10 mM tripotassium citrate and 0.1-0.2 μg ACC enzyme, in a total volume of 150 μL. The reaction was initiated by the addition of ACC2 and the assay was carried out at 37° C. for 2-7 min. The reaction was stopped by the addition of 50 μL of 6 N HCl. Subsequently, 150 μL was transferred into a glass scintillation vial and evaporated to dryness by heating to 85° C. in a heating block for 1 hour. The dried vials were cooled, 0.5 mL of water and 5 mL of ScintiSafe™ 30% were added, and the radioactivity was determined in a Beckman liquid scintillation counter (LS 3801). The tubes, where HCl was added before the addition of acetyl-CoA carboxylase, served as blanks. Avicin G and curcumin inhibitors were made up as stock solutions in water and DMSO, respectively, and added to the assay at the indicated concentrations such that the DMSO concentration was 1% (v/v). All reactions were performed in duplicate. Enzyme activity was based on radioactivity detected in malonyl-CoA and the dpm's set to 100% activity in the absence of any test compound. Inhibition by 1% (v/v) DMSO which was 16% was subtracted from values obtained in the dose response study.
A dose-response series was conducted with curcumin (in DMSO) to verify a classical inhibition pattern. In this study, all curcumin concentrations were added in 1% (v/v) DMSO and the enzyme activity measured.
The radioactive assay (as described in Example 3) was used to determine effects of the test compounds, avicin G and curcumin, on human acetyl-CoA carboxylase 2.

[1] = cited from earlier work

recombinant human ACC2, sequence (O00763 whole entry): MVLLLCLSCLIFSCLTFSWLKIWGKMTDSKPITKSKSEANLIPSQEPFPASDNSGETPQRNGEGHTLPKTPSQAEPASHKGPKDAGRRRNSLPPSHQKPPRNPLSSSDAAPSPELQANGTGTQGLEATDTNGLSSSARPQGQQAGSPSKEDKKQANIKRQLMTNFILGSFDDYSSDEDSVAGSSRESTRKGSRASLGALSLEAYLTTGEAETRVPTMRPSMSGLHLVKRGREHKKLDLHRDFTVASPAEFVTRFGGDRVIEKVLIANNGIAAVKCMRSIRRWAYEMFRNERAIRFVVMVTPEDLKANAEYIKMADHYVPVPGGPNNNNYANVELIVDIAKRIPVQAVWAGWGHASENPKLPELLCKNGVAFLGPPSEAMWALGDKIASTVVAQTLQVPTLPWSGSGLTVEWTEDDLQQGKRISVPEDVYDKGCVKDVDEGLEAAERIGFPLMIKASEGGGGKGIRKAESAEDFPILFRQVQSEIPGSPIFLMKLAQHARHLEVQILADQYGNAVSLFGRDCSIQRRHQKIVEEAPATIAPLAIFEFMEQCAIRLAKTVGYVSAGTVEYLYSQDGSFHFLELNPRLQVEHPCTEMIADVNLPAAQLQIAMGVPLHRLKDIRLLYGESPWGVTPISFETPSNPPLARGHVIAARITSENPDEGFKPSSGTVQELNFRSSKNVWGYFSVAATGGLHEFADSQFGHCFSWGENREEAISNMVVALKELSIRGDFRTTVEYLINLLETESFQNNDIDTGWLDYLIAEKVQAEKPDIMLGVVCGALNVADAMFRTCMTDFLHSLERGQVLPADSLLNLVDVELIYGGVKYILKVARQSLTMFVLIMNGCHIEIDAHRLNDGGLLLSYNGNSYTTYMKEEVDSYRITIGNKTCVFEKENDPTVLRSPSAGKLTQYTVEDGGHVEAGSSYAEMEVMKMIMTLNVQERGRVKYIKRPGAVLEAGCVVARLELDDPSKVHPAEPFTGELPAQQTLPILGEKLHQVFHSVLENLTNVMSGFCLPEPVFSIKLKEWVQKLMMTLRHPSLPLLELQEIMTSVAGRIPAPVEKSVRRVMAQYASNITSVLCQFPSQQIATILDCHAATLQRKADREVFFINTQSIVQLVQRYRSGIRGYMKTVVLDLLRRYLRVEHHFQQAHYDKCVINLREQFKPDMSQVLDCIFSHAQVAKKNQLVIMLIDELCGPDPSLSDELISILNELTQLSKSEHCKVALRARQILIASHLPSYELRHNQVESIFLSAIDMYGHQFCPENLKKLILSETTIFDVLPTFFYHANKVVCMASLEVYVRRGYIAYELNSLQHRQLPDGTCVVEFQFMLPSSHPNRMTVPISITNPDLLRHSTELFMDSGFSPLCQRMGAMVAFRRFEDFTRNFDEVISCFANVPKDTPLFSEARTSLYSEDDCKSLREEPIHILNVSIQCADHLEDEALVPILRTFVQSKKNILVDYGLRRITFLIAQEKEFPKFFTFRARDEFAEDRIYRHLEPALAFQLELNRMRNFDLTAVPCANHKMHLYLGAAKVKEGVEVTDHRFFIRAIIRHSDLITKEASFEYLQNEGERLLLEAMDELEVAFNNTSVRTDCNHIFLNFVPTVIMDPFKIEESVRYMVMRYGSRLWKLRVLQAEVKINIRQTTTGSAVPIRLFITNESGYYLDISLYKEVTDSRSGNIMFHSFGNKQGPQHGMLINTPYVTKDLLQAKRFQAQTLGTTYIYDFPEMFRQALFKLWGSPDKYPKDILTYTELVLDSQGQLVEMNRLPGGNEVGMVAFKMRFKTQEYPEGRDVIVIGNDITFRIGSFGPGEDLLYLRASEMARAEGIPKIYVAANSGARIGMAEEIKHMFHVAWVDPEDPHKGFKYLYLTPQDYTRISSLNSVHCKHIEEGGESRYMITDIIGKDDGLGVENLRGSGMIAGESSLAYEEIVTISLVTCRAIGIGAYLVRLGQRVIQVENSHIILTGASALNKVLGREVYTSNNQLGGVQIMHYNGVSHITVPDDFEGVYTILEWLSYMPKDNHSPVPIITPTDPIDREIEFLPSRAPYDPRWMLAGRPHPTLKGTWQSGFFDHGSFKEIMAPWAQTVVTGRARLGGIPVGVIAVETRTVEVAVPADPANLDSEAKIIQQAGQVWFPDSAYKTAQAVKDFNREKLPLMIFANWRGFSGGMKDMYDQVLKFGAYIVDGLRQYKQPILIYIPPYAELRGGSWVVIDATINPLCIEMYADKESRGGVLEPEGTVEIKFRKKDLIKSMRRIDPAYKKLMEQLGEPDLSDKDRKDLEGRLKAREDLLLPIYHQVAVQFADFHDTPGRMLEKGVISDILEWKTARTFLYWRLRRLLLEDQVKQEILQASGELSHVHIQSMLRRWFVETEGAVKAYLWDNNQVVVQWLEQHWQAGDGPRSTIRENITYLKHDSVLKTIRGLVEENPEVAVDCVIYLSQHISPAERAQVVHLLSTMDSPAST

Row | Structure (SMILES) | activity at 50 µM (recombinant human ACC2; human ACC2, additive at 50 μM, curcumin in 1% (v/v) DMSO final, activity without test compound = 100%, duplicate, read-out: ACC Activity (%) ± S.D.) [%] | solubility in dimethylsulfoxide ([1]; dimethylsulfoxide) | solubility in ethanol ([1]; ethanol) | solubility in ether ([1]; ether) | solubility in water ([1]; water) | ACC Activity (%) ± S.D. (recombinant human ACC2; human ACC2, additive at 50 μM, curcumin in 1% (v/v) DMSO final, activity without test compound = 100%, duplicate) [%] | dose-response inhibition of ACC2 (in words) (recombinant human ACC2; human ACC2, dose-response series, all concentrations in 1% (v/v) DMSO, FIG. 1) | effect on ACC2 activity (in words) (recombinant human ACC2; recombinant human ACC2, radioactive assay, conditions of Table 1)
1 | COc1cc(/C=C/C(=O)CC(=O)/C=C/c2ccc(O)c(OC)c2)ccc1O [curcumin, 1,7,-bis(4-hydroxy-3-methoxyphenyl)-1,6-heptadiene-3,5-dione] | 57 ± 3 | soluble | soluble | insoluble | insoluble |  |  | 
2 | C=C[C@](C)(O)CC/C=C(\C)C(=O)O[C@H]1[C@H](O)[C@@H](O)[C@H](O[C@@](C)(C=C)CC/C=C(\CO)C(=O)O[C@H]2C[C@]3(C(=O)O[C@@H]4O[C@H](CO)[C@@H](O)[C@H](O)[C@H]4O[C@@H]4O[C@@H](C)[C@H](O[C@@H]5O[C@@H](CO)[C@H](O)[C@H]5O)[C@@H](O[C@@H]5O[C@H](CO)[C@@H](O)[C@H](O)[C@H]5O)[C@H]4O)[C@H](O)C[C@]4(C)C(=CC[C@@H]5[C@@]6(C)CC[C@H](O[C@@H]7O[C@H](CO[C@@H]8O[C@H](C)[C@H](O)[C@H](O)[C@H]8O[C@@H]8OC[C@@H](O)[C@H](O)[C@H]8O)[C@@H](O)[C@H](O)[C@H]7NC(C)=O)C(C)(C)[C@@H]6CC[C@]54C)[C@@H]3CC2(C)C)O[C@@H]1C [avicin G] |  |  |  |  |  | 106 ± 7 | No significant inhibition | no significant effect

Reference: patent US20050267221A1, “Use of curcumin and analogues thereof as inhibitors of ACC2” (Research Development Foundation, priority 2004, published 2005)
